Experimental data as given in US10322143B2, “Inhibitors of ADAMTS4 or ADAMTS5 for use in preventing or treating cardiac remodeling and chronic heart failure” (Universitetet i Oslo, priority 2013, dated 2019).

Legend:
ADAMTS4 [1] = target: T1, ADAMTS4 (Rattus norvegicus (Rat), UniProt Q9ESP7); experiment: ADAMTS4 protein level in myocardial protein fractions (immunoblotting), aortic banding rats; format: in vivo; conditions: AB-rats after PPS-treatment
Description: Three days after AB, rats were stratified by the gradient over the stenosis to ensure similar degree of cardiac stress. Two and two stratified rats were randomized to either 6 mg/kg of the sulfated polysaccharide sodium pentosan polysulfate (PPS) (Interfarm AS, Norway) or vehicle (0.9% NaCl) injected subcutaneously every third day. […] Six weeks after AB or sham operation, the rats were examined by echocardiography and postmortem analysis, performed by experienced investigators (IS, JMA) blinded to treatment group.
Proteins from rat myocardium were extracted as previously described (Didangelos et al. J Biol Chem 2012. 287(23):19341-5). […]
Protein concentrations were measured using the Micro BCA Protein Assay Kit (Pierce/Thermo Scientific, IL). […]
Membranes were blocked in 5% non-fat dry-milk (170-6404, BioRad) overnight. […] Primary antibodies used were against ADAMTS4 (PA1-1750, Thermo Pierce Scientific, IL), versican full length (sc-25831, Santa Cruz Biotechnology, CA) and versican fragments displaying the neo-epitope DPEEAE (ab19345, Abcam, Cambrigde, UK) resulting from ADAMTS cleavage by ADAMTS1/4 (Sandy J D et al. J Biol Chem 2001. 276(16):13372-8; Didangelos A et al. supra), and quantified by ImageJ.

[2] = tested on: acute ischemia/reperfusion model; conditions: administered during reperfusion; cited from earlier work
TIMP-3 mRNA = TIMP-3 mRNA level (qRT-PCR) in MI rats; format: in vivo, rat; conditions: PPS-treatment
Description: (§1) At day 0 to 3 (median 2) after surgery, infarct size was quantified by echocardiography using the Vevo2100 system (Visualsonics Inc, Canada) and magnetic resonance imaging (MRi) using a 9.4 T/210 mm/ASR horizontal bore magnet (Agilent Technologies, Inc., USA). Initially, echocardiography was performed to select moderate to large infarcts ranging approximately 40 to 50%. Thereafter, infarct sizes were exactly measured by late-enhancement gadolinium MRi analyses (Bohl S., et al. American Journal of Physiology, 2009; 296 (4): H1200-H1208) and stratified into small infarcts (stratum 1: <43%, stratum 2: 43-48%), and large infarcts (stratum 3: 48-53%, stratum 4: >53%). The rats in each MI stratum and sham group were randomized to receive intervention or control treatment. The intervention group was treated with 6 mg/kg of sodium PPS (Interfarm AS, Norway), while the control group received vehicle (0.9% NaCl), both injected subcutaneously every third day starting from post-operative day 8-10.
The mRNA levels of the ADAMTS versicanases ADAMTS1, -4, -5, -8, and -20 (Shiomi T, et al. Pathology International 2010; 60(7):477-96), versican, aggrecan, syndecan-4, tissue inhibitor metalloprotease (TIMP)-3, and membrane-type (MT)4-MMP, were quantified in rat left ventricle by qRT-PCR, as previously described in Example 1.

ADAMTS4 [3] = target: T1, ADAMTS4; experiment: Active ADAMTS4 protein level (immunoblotting) in MI rats; format: in vivo; conditions: PPS-treatment
Description: as §1
Fractional protein lysates from myocardium of rats having undergone MI treated with PPS or vehicle were extracted as previously described in Example 1 and Didangelos et al. (Journal of Biological Chemistry 2012 Jun. 1; 287(23):19341-5). Protein concentrations were measured by western blotting as previously described in Example 1. […]

ADAMTS4 [4] = target: ADAMTS4 (Homo sapiens (Human), UniProt O75173); conditions: previous studies; cited from earlier work
Chain of ADAMTS4 (Homo sapiens (Human), UniProt O75173) (O75173 213-837, species assumed): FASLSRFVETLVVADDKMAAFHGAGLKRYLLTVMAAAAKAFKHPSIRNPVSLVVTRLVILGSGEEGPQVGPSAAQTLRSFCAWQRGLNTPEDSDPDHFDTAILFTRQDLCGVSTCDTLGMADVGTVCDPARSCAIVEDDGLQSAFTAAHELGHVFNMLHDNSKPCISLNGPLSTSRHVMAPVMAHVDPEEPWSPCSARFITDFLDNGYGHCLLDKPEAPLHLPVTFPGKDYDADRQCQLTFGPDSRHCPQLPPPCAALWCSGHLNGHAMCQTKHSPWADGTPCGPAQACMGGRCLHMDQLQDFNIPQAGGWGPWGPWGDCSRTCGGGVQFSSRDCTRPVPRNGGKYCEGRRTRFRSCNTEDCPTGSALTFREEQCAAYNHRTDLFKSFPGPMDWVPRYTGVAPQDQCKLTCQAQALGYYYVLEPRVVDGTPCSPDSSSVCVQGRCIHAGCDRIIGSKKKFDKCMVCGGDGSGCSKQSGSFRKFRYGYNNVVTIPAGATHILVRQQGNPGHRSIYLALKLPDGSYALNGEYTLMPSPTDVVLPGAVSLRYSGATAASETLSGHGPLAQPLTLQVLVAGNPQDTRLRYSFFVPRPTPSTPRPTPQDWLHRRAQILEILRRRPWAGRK

pentosan polysulfate [PPS]
level of ADAMTS4 in the protein fractions (ADAMTS4 [1]): not altered | infarction size [2]: reduce infarction size | TIMP-3 level (TIMP-3 mRNA): did not change | active ADAMTS4 protein levels (ADAMTS4 [3]): decreased | aggrecanase activity of ADAMTS4 (ADAMTS4 [4]): inhibits
